Data as given in ChEMBL document CHEMBL1201862, “PubChem BioAssay data set” (2004).
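How tested: cells in 96-well plates exposed to compound for 48 hours at five concentrations. GI50 is the concentration that inhibits growth by half.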 Calls of active or inactive are those of the source. Rule as the data show it: active = GI50 up to about 1.1 µM and inactive = higher.

Legend:
Experiment in all cases: NCI anticancer screen, dose series, 48 h
HCT-15 = test system: HCT-15
SF-295 = test system: SF-295
HOP-62 = test system: HOP-62
HOP-92 = test system: HOP-92
M14 = test system: M14
OVCAR-8 = test system: OVCAR-8
SNB-75 = test system: SNB-75
SW-620 = test system: SW-620
PC-3 = test system: PC-3
RPMI-8226 = test system: RPMI-8226
NCI-H460 = test system: NCI-H460
LOX IMVI = test system: LOX IMVI
SK-MEL-28 = test system: SK-MEL-28
Malme-3M = test system: Malme-3M
OVCAR-5 = test system: OVCAR-5
HT-29 = test system: HT-29
UO-31 = test system: UO-31
UACC-257 = test system: UACC-257
EKVX = test system: EKVX

Structure (SMILES)	GI50 (HCT-15)	GI50 (SF-295)	GI50 (HOP-62)	GI50 (HOP-92)	GI50 (M14)	GI50 (OVCAR-8)	GI50 (SNB-75)	GI50 (SW-620)	GI50 (PC-3)	GI50 (RPMI-8226)	GI50 (NCI-H460)	GI50 (LOX IMVI)	GI50 (SK-MEL-28)	GI50 (Malme-3M)	GI50 (OVCAR-5)	GI50 (HT-29)	GI50 (UO-31)	GI50 (UACC-257)	GI50 (EKVX)
COc1ccc(C2CC(c3c(O)ccc4ccccc34)=NN2c2ccc([N+](=O)[O-])cc2[N+](=O)[O-])cc1OC (configuration not stated)	27 µM	12.2 µM (inactive)	21.5 µM (inactive)	19.4 µM (inactive)	32.7 µM (inactive)	5.32 µM (inactive)	20.7 µM (inactive)	39.9 µM (inactive)	11.5 µM (inactive)	3.87 µM (inactive)	14.6 µM (inactive)	25.9 µM (inactive)	34.2 µM (inactive)	17.4 µM (inactive)	24.3 µM (inactive)	10.6 µM (inactive)	9.25 µM (inactive)	22.4 µM (inactive)	14 µM (inactive)
N#CNC(=N)Nc1ccc(Cl)cc1	> 100 µM	> 100 µM (inactive)	> 100 µM (inactive)	> 100 µM (inactive)	> 100 µM (inactive)	> 100 µM (inactive)	> 100 µM (inactive)	> 100 µM (inactive)	> 100 µM (inactive)	> 100 µM (inactive)	> 100 µM (inactive)	> 100 µM (inactive)	> 100 µM (inactive)	> 100 µM (inactive)	> 100 µM (inactive)	> 100 µM (inactive)	> 100 µM (inactive)	> 100 µM (inactive)	> 100 µM (inactive)
CC1=C(C)SC(=C2Sc3[n-]c(=O)[nH]c(=O)c3S2)S1.CCCC[N+](CCCC)(CCCC)CCCC	> 100 µM	> 100 µM (inactive)	> 100 µM (inactive)	> 100 µM (inactive)	31.3 µM (inactive)	49.4 µM (inactive)	> 100 µM (inactive)	> 100 µM (inactive)	> 100 µM (inactive)	> 100 µM (inactive)	> 100 µM (inactive)	44.6 µM (inactive)	39.2 µM (inactive)	20.6 µM (inactive)	> 100 µM (inactive)	> 100 µM (inactive)	> 100 µM (inactive)	> 100 µM (inactive)	> 100 µM (inactive)
O=C1O[C@H]2C3C4CCC(C4[C@@H]2I)[C@H]13 (some centres not stated)	> 100 µM	> 100 µM (inactive)	> 100 µM (inactive)	> 100 µM (inactive)	> 100 µM (inactive)	> 100 µM (inactive)	60.3 µM (inactive)	> 100 µM (inactive)	> 100 µM (inactive)	> 100 µM (inactive)	> 100 µM (inactive)	> 100 µM (inactive)	> 100 µM (inactive)	> 100 µM (inactive)	> 100 µM (inactive)	> 100 µM (inactive)	> 100 µM (inactive)	> 100 µM (inactive)	> 100 µM (inactive)
COC(=O)CCC(C)[C@H]1CCC2C3C(C[C@H](OC(C)=O)[C@@]21C)[C@@]1(C)CCC2(C[C@H]1C[C@H]3OC(C)=O)OOC1(CCCC1)OO2 (some centres not stated)	27.5 µM	83.6 µM (inactive)	10.3 µM (inactive)	9.62 µM (inactive)	> 100 µM (inactive)	34.4 µM (inactive)	96.4 µM (inactive)	51.9 µM (inactive)	4.47 µM (inactive)	2.47 µM (inactive)	6.82 µM (inactive)	7 µM (inactive)	> 100 µM (inactive)	> 100 µM (inactive)	> 100 µM (inactive)	34.4 µM (inactive)	10.1 µM (inactive)	39.2 µM (inactive)	11.1 µM (inactive)
Cc1c(Cl)cc(C(C)(C)C)c(O)c1Cc1c(C)c(Cl)cc(C(C)(C)C)c1O	2.21 µM	2.07 µM (inactive)	2.96 µM (inactive)	0.304 µM (active)	2.42 µM (inactive)	1.49 µM (inactive)	1.5 µM (inactive)	1.81 µM (inactive)	1.64 µM (inactive)	0.273 µM (active)	0.634 µM (active)	1.56 µM (inactive)	2.33 µM (inactive)	0.406 µM (active)	3.43 µM (inactive)	1.54 µM (inactive)	1.82 µM (inactive)	1.36 µM (inactive)	1.4 µM (inactive)
CS(=O)(=O)Nc1ccc2ccccc2c1-c1c(NS(C)(=O)=O)ccc2ccccc12	> 25 µM	> 25 µM (inactive)	> 25 µM (inactive)	> 25 µM (inactive)	> 25 µM (inactive)	> 25 µM (inactive)	> 19.1 µM (inactive)	> 25 µM (inactive)	> 25 µM (inactive)	> 25 µM (inactive)	> 25 µM (inactive)	> 25 µM (inactive)	> 25 µM (inactive)	> 25 µM (inactive)	> 25 µM (inactive)	> 25 µM (inactive)	> 25 µM (inactive)	> 25 µM (inactive)	> 25 µM (inactive)
Cc1ccc(/C=N/Nc2ccccn2)s1	> 72.6 µM	> 100 µM (inactive)	> 100 µM (inactive)	> 100 µM (inactive)	> 100 µM (inactive)	> 100 µM (inactive)	36.7 µM (inactive)	> 100 µM (inactive)	> 100 µM (inactive)	> 100 µM (inactive)	> 100 µM (inactive)	> 50.4 µM (inactive)	> 100 µM (inactive)	> 100 µM (inactive)	> 100 µM (inactive)	> 67.8 µM (inactive)	97.7 µM (inactive)	> 100 µM (inactive)	> 72.8 µM (inactive)
